Laboratory results: US10793563B2, “GCN2 inhibitors and uses thereof” (Merck Patent GmbH, priority 2018, dated 2020)

Target: GCN2 kinase (Homo sapiens (Human), UniProt Q9P2K8)
Assay: GCN2 Enzyme Inhibition Assay (Transcreener ADP2 fluorescence polarization)
Assay type: biochemical
Conditions: 280 μM ATP, 200 μM (RS)7 peptide, 4 nM GCN2, 25° C.
Method: Compounds were screened for their ability to inhibit GCN2 kinase activity using a Transcreener® ADP^2 fluorescence polarization assay that detects ADP levels (BellBrook Labs, WI). Assays were carried out in a buffer consisting of 25 mM Tris-HCl (pH 7.5), 50 mM NaCl, 10 mM MgCl2 and 1 mM DTT. […] Assays were carried out at 25° C. in the presence of a (typical) final concentration of 4 nM GCN2 kinase. An assay buffer containing GCN2 kinase and (RS)7 was prepared. […] The plate was incubated for 10 minutes at 25° C. prior to the addition of 4.7 μL of ATP stock buffer to initiate the enzyme reaction. The reaction was allowed to proceed for 1 hour at 25° C., prior to the addition of 10 μL detection buffer (consisting of appropriate concentrations of ADP^2 antibody and ADP Alexa633 tracer in 1× stop and detect buffer as supplied by BellBrook Labs). […] Percentage inhibition of enzyme activity was then calculated at each compound dose. IC50 and Ki(app) (using known assay and kinetic parameters) values were calculated from percentage inhibition data using a non-linear, tight-binding algorithm. All data analysis was undertaken using the Screener® software package (Genedata, Switzerland).

GCN2 kinase, sequence (Q9P2K8 whole entry): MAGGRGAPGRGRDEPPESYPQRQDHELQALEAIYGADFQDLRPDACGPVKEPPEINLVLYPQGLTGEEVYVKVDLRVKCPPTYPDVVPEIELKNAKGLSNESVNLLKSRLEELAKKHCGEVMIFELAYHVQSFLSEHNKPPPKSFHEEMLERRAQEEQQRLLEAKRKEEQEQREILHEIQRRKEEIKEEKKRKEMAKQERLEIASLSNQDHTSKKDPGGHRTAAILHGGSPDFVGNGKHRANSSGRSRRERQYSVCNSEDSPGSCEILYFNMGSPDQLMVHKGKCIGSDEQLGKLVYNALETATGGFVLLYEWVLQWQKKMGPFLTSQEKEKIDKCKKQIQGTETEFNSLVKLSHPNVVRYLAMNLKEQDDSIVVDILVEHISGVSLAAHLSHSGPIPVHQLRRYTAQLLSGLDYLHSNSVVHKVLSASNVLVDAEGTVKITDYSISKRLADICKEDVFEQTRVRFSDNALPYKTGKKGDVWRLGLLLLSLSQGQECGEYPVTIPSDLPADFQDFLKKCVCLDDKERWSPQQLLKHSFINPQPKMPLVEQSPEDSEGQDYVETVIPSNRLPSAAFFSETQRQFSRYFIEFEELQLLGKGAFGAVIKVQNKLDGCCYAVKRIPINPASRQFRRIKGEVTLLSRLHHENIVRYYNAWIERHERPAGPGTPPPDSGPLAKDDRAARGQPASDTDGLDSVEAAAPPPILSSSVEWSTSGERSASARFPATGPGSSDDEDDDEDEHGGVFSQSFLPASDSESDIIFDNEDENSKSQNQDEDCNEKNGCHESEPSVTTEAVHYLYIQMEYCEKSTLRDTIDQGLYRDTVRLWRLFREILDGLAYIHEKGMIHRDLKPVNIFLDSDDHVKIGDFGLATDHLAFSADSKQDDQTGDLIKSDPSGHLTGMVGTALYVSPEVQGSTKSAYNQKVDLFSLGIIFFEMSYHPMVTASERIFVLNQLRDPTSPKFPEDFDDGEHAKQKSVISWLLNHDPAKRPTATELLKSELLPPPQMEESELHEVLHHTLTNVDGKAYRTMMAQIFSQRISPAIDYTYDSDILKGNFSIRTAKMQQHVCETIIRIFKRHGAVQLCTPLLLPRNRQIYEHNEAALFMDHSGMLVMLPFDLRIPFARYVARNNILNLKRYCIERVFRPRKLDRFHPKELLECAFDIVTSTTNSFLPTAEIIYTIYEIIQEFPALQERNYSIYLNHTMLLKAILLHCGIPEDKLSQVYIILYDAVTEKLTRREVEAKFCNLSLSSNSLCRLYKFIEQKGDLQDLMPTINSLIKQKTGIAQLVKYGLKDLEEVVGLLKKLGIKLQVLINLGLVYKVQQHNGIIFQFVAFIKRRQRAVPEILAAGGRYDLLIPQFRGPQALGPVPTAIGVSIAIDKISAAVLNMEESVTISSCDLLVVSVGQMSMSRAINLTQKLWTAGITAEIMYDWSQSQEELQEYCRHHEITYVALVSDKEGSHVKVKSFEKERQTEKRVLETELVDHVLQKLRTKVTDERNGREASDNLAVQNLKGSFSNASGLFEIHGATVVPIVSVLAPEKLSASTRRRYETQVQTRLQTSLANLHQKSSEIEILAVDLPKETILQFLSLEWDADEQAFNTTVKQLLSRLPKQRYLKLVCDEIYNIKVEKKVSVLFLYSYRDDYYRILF

With `CC1(C)CN(c2ccnc(-c3cnc4ccc(C(F)(F)F)cn34)n2)CCN1` [I-334, 3-(4-(3,3-dimethylpiperazin-1-yl)pyrimidin-2-yl)-6-(trifluoromethyl)imidazo[1,2-a]pyridine] as the compound, how does the IC50 read?
The IC50 was 100 to 1000 nM.

How did the IC50 turn out when `COCCN1C(C)CN(c2ccnc(-c3cnc4ccc(C(F)(F)F)cn34)n2)CC1C` (stereo not drawn) [I-335, 3-(4-(4-(2-methoxyethyl)-3,5-dimethylpiperazin-1-yl)pyrimidin-2-yl)-6-(trifluoromethyl)imidazo[1,2-a]pyridine] was run?
Its IC50 is 100 to 1000 nM.

`Cc1oncc1C(=O)N1CCN(c2ccnc(-c3cnc4ccc(C(F)(F)F)cn34)n2)CC1c1cn[nH]c1` (stereo not drawn) [I-515, (2-(1H-pyrazol-4-yl)-4-(2-(6-(trifluoromethyl)imidazo[1,2-a]pyridin-3-yl)pyrimidin-4-yl)piperazin-1-yl)(5-methylisoxazol-4-yl)methanone] was tested. Which IC50 did it give?
The IC50 was 100 to 1000 nM.

`Cc1[nH]ncc1[C@H]1CN(c2ccnc(-c3cnc4cc(F)c(Cl)cn34)n2)C[C@H](C)O1` [I-539, (2S,6S)-4-(2-(6-chloro-7-fluoroimidazo[1,2-a]pyridin-3-yl)pyrimidin-4-yl)-2-methyl-6-(5-methyl-1H-pyrazol-4-yl)morpholine] was tested. Which IC50 did it give?
The IC50 was 10 to 100 nM.

Which IC50 does the source give for `C[C@H]1[C@H](CNS(C)(=O)=O)NCCN1c1ccnc(-c2cnc3ccc(C(F)(F)F)cn23)n1` [I-471, N-(((2 S,3 S)-3-methyl-4-(2-(6-(trifluoromethyl)imidazo[1,2-a]pyridin-3-yl)pyrimidin-4-yl)piperazin-2-yl)methyl)methanesulfonamide] here?
Its IC50 is 100 to 1000 nM.

Which IC50 does the source give for `CC1(C(N)=O)CCN(c2ccnc(-c3cnc4ccc(C(F)(F)F)cn34)n2)CC1` [I-188, 4-methyl-1-(2-(6-(trifluoromethyl)imidazo[1,2-a]pyridin-3-yl)pyrimidin-4-yl)piperidine-4-carboxamide] here?
Its IC50 is 10 to 100 nM.

How did the IC50 turn out when `O=C(C1CCOCC1)N1CCN(c2ccnc(-c3cnc4ccc(C(F)(F)F)cn34)n2)CC1c1cn[nH]c1` (stereo not drawn) [I-487, (2-(1H-pyrazol-4-yl)-4-(2-(6-(trifluoromethyl)imidazo[1,2-a]pyridin-3-yl)pyrimidin-4-yl)piperazin-1-yl)(tetrahydro-2H-pyran-4-yl)methanone] was run?
The IC50 was 100 to 1000 nM.

`Fc1cccc(CN2CCN(c3ccnc(-c4cnc5ccc(C(F)(F)F)cn45)n3)CC2c2cn[nH]c2)c1` (stereo not drawn) [I-458, 3-(4-(4-(3-fluorobenzyl)-3-(1H-pyrazol-4-yl)piperazin-1-yl)pyrimidin-2-yl)-6-(trifluoromethyl)imidazo[1,2-a]pyridine] was tested. Which IC50 did it give?
Its IC50 is 10 to 100 nM.

How did the IC50 turn out when `CC1CN(c2ccnc(-c3cnc4ccc(C(F)(F)F)cn34)n2)CC(C)N1C1COC1` (stereo not drawn) [I-234, 3-(4-(3,5-dimethyl-4-(oxetan-3-yl)piperazin-1-yl)pyrimidin-2-yl)-6-(trifluoromethyl)imidazo[1,2-a]pyridine] was run?
The IC50 was 10 to 100 nM.

How did the IC50 turn out when `Cc1nn(C)cc1[C@H]1CN(c2nccc(-c3cnc4ccc(C(F)(F)F)cn34)n2)C[C@@H](C)O1` [I-158, (2S,6R)-2-(1,3-dimethyl-1H-pyrazol-4-yl)-6-methyl-4-(4-(6-(trifluoromethyl)imidazo[1,2-a]pyridin-3-yl)pyrimidin-2-yl)morpholine] was run?
The IC50 was 10 to 100 nM.

Which IC50 does the source give for `O=C1CCC(C(=O)N2CCN(c3ccnc(-c4cnc5ccc(C(F)(F)F)cn45)n3)CC2c2cn[nH]c2)N1` (stereo not drawn) [I-469, 5-(2-(1H-pyrazol-4-yl)-4-(2-(6-(trifluoromethyl)imidazo[1,2-a]pyridin-3-yl)pyrimidin-4-yl)piperazine-1-carbonyl)pyrrolidin-2-one] here?
Its IC50 is 10 to 100 nM.

How did the IC50 turn out when `O=C(C1CC12CC2)N1CCN(c2ccnc(-c3cnc4ccc(C(F)(F)F)cn34)n2)CC1c1cn[nH]c1` (stereo not drawn) [I-468, (2-(1H-pyrazol-4-yl)-4-(2-(6-(trifluoromethyl)imidazo[1,2-a]pyridin-3-yl)pyrimidin-4-yl)piperazin-1-yl)(spiro[2.2]pentan-1-yl)methanone] was run?
Its IC50 is 100 to 1000 nM.

For `Cc1noc([C@H]2CN(c3ccnc(-c4cnc5ccc(C(F)F)cn45)n3)C[C@@H](C)O2)n1` [I-497, (2R,6R)-4-(2-(6-(difluoromethyl)imidazo[1,2-a]pyridin-3-yl)pyrimidin-4-yl)-2-methyl-6-(3-methyl-1,2,4-oxadiazol-5-yl)morpholine], which IC50 is on record?
Its IC50 is 100 to 1000 nM.

How did the IC50 turn out when `CC1(C(N)=O)CCCN(c2ccnc(-c3cnc4ccc(C(F)(F)F)cn34)n2)C1` (stereo not drawn) [I-192, 3-methyl-1-(2-(6-(trifluoromethyl)imidazo[1,2-a]pyridin-3-yl)pyrimidin-4-yl)piperidine-3-carboxamide] was run?
Its IC50 is 10 to 100 nM.

For `CC1CN(c2ccnc(-c3cnc4ccc(Cl)cn34)n2)C(C)C(c2cn[nH]c2)N1` (stereo not drawn) [I-122, 6-Chloro-3-(4-(2,5-dimethyl-3-(1H-pyrazol-4-yl)piperazin-1-yl)pyrimidin-2-yl)imidazo[1,2-a]pyridine], which IC50 is on record?
Its IC50 is less than 10 nM.

How did the IC50 turn out when `NC(=O)C1CN(c2ccnc(-c3cnc4ccc(Cl)cn34)n2)CCO1` (stereo not drawn) [I-163, 4-(2-(6-chloroimidazo[1,2-a]pyridin-3-yl)pyrimidin-4-yl)morpholine-2-carboxamide] was run?
The IC50 was 10 to 100 nM.

For `C[C@@H]1CN(c2ccnc(-c3cnc4ccc(C(F)(F)F)cn34)n2)C[C@H](C)N1C(=O)C1CC(F)(F)C1` [I-437, (3,3-difluorocyclobutyl)(cis-2,6-dimethyl-4-(2-(6-(trifluoromethyl)imidazo[1,2-a]pyridin-3-yl)pyrimidin-4-yl)piperazin-1-yl)methanone], which IC50 is on record?
The IC50 was 100 to 1000 nM.

`O=S1(=O)CCN2CCN(c3ccnc(-c4cnc5ccc(C(F)(F)F)cn45)n3)CC2C1` (stereo not drawn) [I-338, 8-(2-(6-(trifluoromethyl)imidazo[1,2-a]pyridin-3-yl)pyrimidin-4-yl)octahydropyrazino[2,1-c][1,4]thiazine 2,2-dioxide] was tested. Which IC50 did it give?
Its IC50 is 100 to 1000 nM.

`Fc1ccc(CN2CCN(c3ccnc(-c4cnc5ccc(C(F)(F)F)cn45)n3)CC2c2cn[nH]c2)cc1` (stereo not drawn) [I-457, 3-(4-(4-(4-fluorobenzyl)-3-(1H-pyrazol-4-yl)piperazin-1-yl)pyrimidin-2-yl)-6-(trifluoromethyl)imidazo[1,2-a]pyridine] was tested. Which IC50 did it give?
Its IC50 is 10 to 100 nM.

With `C[C@H]1[C@@H](C(N)=O)NCCN1c1ccnc(-c2cnc3ccc(C(F)(F)F)cn23)n1` [I-435, (2S,3 S)-3-methyl-4-(2-(6-(trifluoromethyl)imidazo[1,2-a]pyridin-3-yl)pyrimidin-4-yl)piperazine-2-carboxamide] as the compound, how does the IC50 read?
Its IC50 is less than 10 nM.

Which IC50 does the source give for `C[C@H]1C[C@@H](N=S(C)(C)=O)CN(c2ccnc(-c3cnc4ccc(S(N)(=O)=O)cn34)n2)C1` [I-328, 3-(4-((3R,5S)-3-((dimethyl(oxo)-λ6-sulfaneylidene)amino)-5-methylpiperidin-1-yl)pyrimidin-2-yl)imidazo[1,2-a]pyridine-6-sulfonamide] here?
The IC50 was 100 to 1000 nM.

How did the IC50 turn out when `NC(=O)CC1CCCN(c2ccnc(-c3cnc4ccc(C(F)(F)F)cn34)n2)C1` (stereo not drawn) [I-166, 2-(1-(2-(6-(trifluoromethyl)imidazo[1,2-a]pyridin-3-yl)pyrimidin-4-yl)piperidin-3-yl)acetamide] was run?
The IC50 was 10 to 100 nM.

With `C[C@@H]1CN(c2ccnc(-c3cnc4ccc(C(F)(F)F)cn34)n2)C[C@H](C)N1C(=O)C1CC1(F)F` (stereo partly drawn) [I-438, (2,2-difluorocyclopropyl)(cis-2,6-dimethyl-4-(2-(6-(trifluoromethyl)imidazo[1,2-a]pyridin-3-yl)pyrimidin-4-yl)piperazin-1-yl)methanone] as the compound, how does the IC50 read?
The IC50 was 10 to 100 nM.

For `Cc1[nH]ncc1[C@H]1CN(c2ccnc(-c3cnc4cc(F)c(C5CC5)cn34)n2)C[C@H](C)O1` [I-428, (2S,6S)-4-(2-(6-cyclopropyl-7-fluoroimidazo[1,2-a]pyridin-3-yl)pyrimidin-4-yl)-2-methyl-6-(5-methyl-1H-pyrazol-4-yl)morpholine], which IC50 is on record?
The IC50 was 10 to 100 nM.

With `FC(F)(F)c1ccc2ncc(-c3nccc(N4CCOC5(CNC5)C4)n3)n2c1` [I-412, 8-(2-(6-(trifluoromethyl)imidazo[1,2-a]pyridin-3-yl)pyrimidin-4-yl)-5-oxa-2,8-diazaspiro[3.5]nonane] as the compound, how does the IC50 read?
The IC50 was 100 to 1000 nM.

Which IC50 does the source give for `CC1(C)CN(c2ccnc(-c3cnc4ccc(C(F)(F)F)cn34)n2)CCN1CC(F)(F)F` [I-333, 3-(4-(3,3-dimethyl-4-(2,2,2-trifluoroethyl)piperazin-1-yl)pyrimidin-2-yl)-6-(trifluoromethyl)imidazo[1,2-a]pyridine] here?
The IC50 was 100 to 1000 nM.

With `Cc1oncc1C(=O)N1CCN(c2ccnc(-c3cnc4ccc(C(F)(F)F)cn34)n2)C[C@@H]1c1cn[nH]c1` [I-549, (S)-(2-(1H-pyrazol-4-yl)-4-(2-(6-(trifluoromethyl)imidazo[1,2-a]pyridin-3-yl)pyrimidin-4-yl)piperazin-1-yl)(5-methylisoxazol-4-yl)methanone] as the compound, how does the IC50 read?
The IC50 was 100 to 1000 nM.

Same assay, conditions: Ki(app); 280 μM ATP, 200 μM (RS)7 peptide, 4 nM GCN2, 25° C.

For `O=C1NCCC2CN(c3ccnc(-c4cnc5ccc(Cl)cn45)n3)CCN12` (stereo not drawn) [I-96, 2-(2-{6-chloroimidazo[1,2-a]pyridin-3-yl}pyrimidin-4-yl)-octahydro-1H-pyrazino[1,2-c]pyrimidin-6-one], which Ki is on record?
The Ki was less than 10 nM.

With `Cc1nnc([C@@H]2CN(c3ccnc(-c4cnc5ccc(C#N)cn45)n3)C[C@H](C)O2)o1` (relative stereo) [I-94, 3-{4-[cis-2-methyl-6-(5-methyl-1,3,4-oxadiazol-2-yl)morpholin-4-yl]pyrimidin-2-yl}imidazo[1,2-a]pyridine-6-carbonitrile] as the compound, how does the Ki read?
The Ki was 100 to 1000 nM.

`O=C1OCCC2CN(c3ccnc(-c4cnc5ccc(Cl)cn45)n3)CCN12` (stereo not drawn) [I-98, 2-(2-{6-chloroimidazo[1,2-a]pyridin-3-yl}pyrimidin-4-yl)-octahydropyrazino[1,2-c][1,3]oxazin-6-one] was tested. Which Ki did it give?
The Ki was 10 to 100 nM.
